Data reported in article PMC6278537, “Simultaneous Determination and Pharmacokinetics Study of Six Triterpenes in Rat Plasma by UHPLC-MS/MS after Oral Administration of Sanguisorba officinalis L. Extract” (Molecules, 2018).
Read-outs that look alike come from different tables or passages of the source.

Columns and labels:
[1] = Pharmacokinetic study in rats after single oral administration of S. officinalis extract (UHPLC-MS/MS of plasma); format: in vivo, Sprague-Dawley rats
Protocol: The UHPLC-MS/MS method was successfully used in the pharmacokinetic studies of six analytes after single dose administration of S. officinalis extract in rats. Based on the body surface area calculations of people and the animals and equivalent dose conversion calculations, the dosage of the rats was 0.015 g/kg. The half-time (t1/2), maximum plasma concentration (Cmax), time to reach Cmax (Tmax), and area under concentration–time curve (AUC0→t and AUC0→∞) were calculated via non-compartmental analysis (Table 6). The pharmacokinetic parameters of six components were reckoned by means of non-compartmental analysis using DAS 2.0 (Shanghai, China).
The experimental protocol was permitted by the Animal Ethics Committee of Harbin Medical University and conformed to the principles for the Care and Use of Laboratory Animals. Twelve male Sprague-Dawley rats (Weight 200 ± 20 g) were provided by the Laboratory Animal Centre of Harbin Medical University (Harbin, China). Each rat was fasted for 12 h before giving the drug and had free water supply even during the experiment. The S. officinalis extract was dissolved in water. A single dose of the S. officinalis extract (0.015 g/kg) was administrated to the rats. Blood (0.3 mL) was gained from the retinal venous plexus at 0, 0.083, 0.25, 0.5 1.0, 1.5, 2.0, 3.0, 4.0, 6.0, 8.0, 12.0 and 24.0 h after dosing. The plasma was immediately separated by centrifugation at 12000 rpm for 5 min at […].
Ten microliters of IS (1040.0 ng/mL) solution and 100 μL of methanol were added to 100 μL aliquot of plasma sample and vortexed for 30 s. The mixture was extracted with 3 mL ethyl acetate by being vortex-mixed for 1 min. The supernatant was separated and evaporated to dryness by N2 blowing at 40 °C after centrifuging at 3800 rpm for 5 min. The residue was reconstituted with 100 μL of methanol, and then vortex-mixed for 2 min and filtered by a 0.22 μm nylon 66 organic membrane. This was followed by injection of 5 μL aliquot of the solution into the UHPLC-MS/MS system (Agilent Technologies, Santa Clara, CA, USA).
The maximum concentration (Cmax) and the time to attain it (Tmax) were observed directly from the measured data. The elimination rate constant (Ke) was calculated by linear regression of the terminal points in a semi-log plot of the plasma concentration against time. The elimination half-life (t1/2) was calculated using the formula t1/2 = 0.693/Ke. The area under plasma concentration–time curve (AUC0→t) to the last measurable plasma concentration (Ct) was estimated by using the linear trapezoidal rule. The area under the plasma concentration–time curve to time infinity (AUC0→∞) was calculated as: AUC0→∞ = AUC0→t + Ct/Ke. The pharmacokinetic parameters of six analytes were reckoned by non-compartmental analysis using DAS 2.0 (Mathematical Pharmacology Professional Committee of China, Shanghai, China).

[2] = Stability of analytes in rat plasma under various storage conditions; format: in vitro ADME; details: for Stability Post-Preparation: 12 h after sample preparation at 4 °C; for Stability Short-Term / Stability Long-Term / Stability Three Freeze-Thaw: rat plasma; for Stability Short-Term: room temperature 4 h; for Stability Long-Term: storage for 2 weeks; for Stability Three Freeze-Thaw: three freeze–thaw cycles at −20 °C
Protocol: The stability of six analytes in rat plasma was estimated under different storage conditions. […] Post-preparative stability of analytes also implied that there was no obvious degradation when samples were kept at 4 °C for 12 h. In addition, all compounds remained stable for two weeks at […].
The stability of six compounds in rat plasma including freeze and thaw stability (three freeze–thaw cycles at −20 °C), long-term stability (storage for 2 weeks at −80 °C), room temperature stability (storage for 4 h at ambient temperature), and post-preparation stability […] All stability testing QC samples were determined by using the calibration curve of freshly prepared standard samples.

[3] = male, Sprague-Dawley, rat plasma, single oral dose of S. officinalis extract 0.015 g/kg, n = 12, mean ± SD
[4] = rats, after oral administration of S. officinalis extract, Figure 4

Question: Which results are given for CC1CCC2(C(=O)OC3OC(CO)C(O)C(O)C3O)CCC3(C)C(=CCC4C5(C)CCC(O)C(C)(C)C5CCC43C)C2C1(C)O [II, 3β,19α-dihydroxyurs-12-en-28-oic-acid 28-β-D-glucopyranosyl ester]?
Answer: Cmax ([1]; male, Sprague-Dawley, rat, plasma, po, 0.015 g/kg, rat plasma, single oral dose of S. officinalis extract 0.015 g/kg, n = 12, mean ± SD, read-out: Cmax): 527 ± 64 ng/mL; AUC(0-inf) [1, 3]: 2660 ± 601 ng·h/mL; AUC(0-t) [1, 3]: 2300 ± 417 ng·h/mL; Tmax [1, 3]: 0.83 ± 0.26 h; half-life [1, 3]: 8.99 ± 3.04 h; Cmax ([1]; rat plasma, single oral dose of S. officinalis extract 0.015 g/kg, n = 12, mean ± SD): 526.6 ± 64.0 ng/mL; time of first peak of mean plasma concentration-time curve (double-peak phenomenon) [1, 4]: 0.5 to 1.5 h; time of second peak of mean plasma concentration-time curve (double-peak phenomenon) [1, 4]: 4 to 8 h; Stability Post-Preparation ([2]; high QC spiked concentration): 3.04 % RE; Stability Post-Preparation ([2]; low QC spiked concentration): 5.22 % RE; Stability Post-Preparation ([2]; medium QC spiked concentration): 4.11 % RE; Stability Short-Term ([2]; high QC spiked concentration): 2.47 % RE; Stability Short-Term ([2]; low QC spiked concentration): −5.94 % RE; Stability Short-Term ([2]; medium QC spiked concentration): 4.60 % RE; Stability Long-Term ([2]; high QC spiked concentration): 2.24 % RE; Stability Long-Term ([2]; low QC spiked concentration): −3.19 % RE; Stability Long-Term ([2]; medium QC spiked concentration): 2.08 % RE; Stability Three Freeze-Thaw ([2]; high QC spiked concentration): 2.74 % RE; Stability Three Freeze-Thaw ([2]; low QC spiked concentration): 2.66 % RE; Stability Three Freeze-Thaw ([2]; medium QC spiked concentration): −2.95 % RE
